Assay results published in patent publication US7252822B2, “Methods for treating post-surgical pain by administering an anti-nerve growth factor antagonist” (Rinat Neuroscience Corp., priority 2002, dated 2007).

How the values were obtained:
Male Sprague Dawley rats = experiment: Post-surgical pain model (hind paw incision): resting pain, cumulative pain score; assay type: in vivo; conditions: rat
Description: We used a pain model that mimics post surgical pain to assess the efficacy of treatment with anti-NGF antibody 911 (a mouse monoclonal antibody; see Hongo, et al., Hybridoma 19:215-227 (2000). Each experiment involved 16 animals (n=8 per group). The anti-NGF antibody was injected intra peritoneal (i.p.) at various concentratiosn per experiment (35 or 7 milligrams per kilogram) 15 hours pre-incision. The control group received no antibody but was injected i.p. with a saline solution.
Animals. Male Sprague Dawley rats weighting between 220-240 grams were purchased from Harlan (San Diego) and acclimated to the animal facility for one week prior to surgery.
Surgery. The surgery was based on the procedure described by Brennan, et al. Pain 64:493-501 (1996). Animals were anesthetized with a 2% isoflurane in air mixture that was maintained during surgery via a nose cone. The plantar surface of the right hind paw was prepared with a povidone-iodine pad, and a 1-cm central longitudinal incision was made through skin and fascia, starting 0.5 cm from the edge of the heel and extending toward the toes. Measurements were made with a ruler with the foot held in a flexed position. The plantaris muscle was elevated using curved forceps and incised longitudinally. The muscle was incised through its full depth, between the origin and insertion. Bleeding was controlled throughout surgery by pressure applied through a gauze pad. The wound was closed with two mattress sutures (5-0 ethilon black monofilament). These sutures were knotted 5-6 times, with the first knot loosely tied. The wound site was swabbed with bacitracin solution. Animals were allowed to recover and rest in clean cages for two hours or more before behavioral testing began.
Evaluating resting pain. A cumulative pain score was used to assess pain related to weight bearing. Animals were placed on a plastic mesh (grid: 8 mm^2) in clear plastic cages that were elevated on a platform (h: 18″) allowing inspection of the underside of their paws. After a 20 minute acclimation period, weight bearing was assessed on a scale of 0 to 2. A score of 0 was given if the paw was blanched or pressed against the mesh, indicating full weight bearing. A score of 1 was given if the paw was favored with the skin just touching the mesh, with no blanching or indentation of the skin. A score of 2 was given if the paw was held completely off the mesh. Flinching the paw was considered a 2 if the rat was still at rest. […] The sum of 6 scores (0-12) obtained during ½ hour was used to assess pain in the incised foot. Frequency of scores of 2 was also calculated and used to assess the incidence of severe pain or total guarding of the paw by the animal. Each animal was tested 24 hours before surgery (baseline), and 2 h, 24 h, 48 h, and 72 h postoperatively. […]

Male Sprague-Dawley rats = experiment: Wound healing after dorsal skin incision: proportion of intact wounds; assay type: in vivo; conditions: rat, 5 mg/kg daily for five days intramuscularly, positive control; p<0.0005 vs saline or 911; FIG. 8
Text: Male Sprague-Dawley rats weighing 250-350 grams were purchased from Harlan (Wisconsin) were brought into the facility and acclimated for at least one week. Animals were anaesthetized with isoflurane and the dorsal surface (back) was shaved and cleaned with povidone iodine followed by an alcohol pad. A 2.5 cm incision through the skin was made on the midline between the scapulae. Bleeding was controlled with pressure with a gauze pad. The wound was closed with four single 4-0 ethilon sutures and the animals were allowed to recover. Animals were then divided into three groups: one group receiving a single does of mouse monoclonal anti-NGF antibody 911 at the time of surgery (1 mg/kg, i.p.); one group receiving Ketorolac (5 mg/kg daily for five days starting the day of surgery, intramuscularly (IMO) as a positive control; and a saline treated control group (negative control). Ketoralac is known to inhibit wound healing. Haws et al. (1996) Ann Plast Surg. 37(2):147-51; Gerstenfeld et al. (2003) J Orthop Res. 21(4):670-5.
The area of the incision was examined and photographed daily starting at day one post surgery. […] Incisions were scored as “intact” if the entire incision remained closed, and “failed” if some or all of the incision re-opened. Results were expressed as the proportion of intact wounds (i.e., the number of intact wounds divided by the total number of animals scored).

human NGF = target: T1, human NGF (human, UniProt P01138 122-239, limits assumed); experiment: binding affinity; method not given
T1 construct: also called hNGF; human nerve growth factor
T1 sequence (P01138 122-239 limits assumed): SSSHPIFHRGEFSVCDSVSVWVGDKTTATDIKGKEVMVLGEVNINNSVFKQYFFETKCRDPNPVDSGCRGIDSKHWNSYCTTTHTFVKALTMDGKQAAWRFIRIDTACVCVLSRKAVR

## COC(=O)[C@@]1(O)C[C@H]2O[C@]1(C)n1c3ccccc3c3c4c(c5c6ccccc6n2c5c31)C(=O)NC4 [K252a]
Male Sprague Dawley rats; in vivo, ip, 4 mg/kg
  cumulative resting pain score three hours after dosing: significantly reduced resting pain
  resting pain reduction compared with anti-NGF antibody in similar experiments: reduced resting pain to the same extent that treatment with anti-NGF antibody did

## O=C(c1ccccc1)c1ccc2n1CCC2C(=O)O (stereo not drawn) [ketorolac]
Male Sprague-Dawley rats
  wound healing (proportion of intact wounds): significantly inhibited

B1: humanized anti-NGF antibody E3 (antibody, V domains shown)
VH: QVQLQESGPGLVKPSETLSLTCTVSGFSLIGYDLNWIRQPPGKGLEWIGIIWGDGTTDYNSAVKSRVTISKDTSKNQFSLKLSSVTAADTAVYYCARGGYWYATSYYFDYWGQGTLVTVS
VL: DIQMTQSPSSLSASVGDRVTITCRASQSISNNLNWYQQKPGKAPKLLIYYTSRFHSGVPSRFSGSGSGTDFTFTISSLQPEDIATYYCQQEHTLPYTFGQGTKLEIKR
Human NGF
  Kd: ~0.07 nM

B2: E3: humanized mouse anti-NGF monoclonal antibody; human IgG2a constant region with A330P331 to S330S331, kappa light chain, variable regions SEQ ID NO:1 and 2 (antibody, V domains shown)
VH: QVQLQESGPGLVKPSETLSLTCTVSGFSLIGYDLNWIRQPPGKGLEWIGIIWGDGTTDYNSAVKSRVTISKDTSKNQFSLKLSSVTAADTAVYYCARGGYWYATSYYFDYWGQGTLVTVS
VL: DIQMTQSPSSLSASVGDRVTITCRASQSISNNLNWYQQKPGKAPKLLIYYTSRFHSGVPSRFSGSGSGTDFTFTISSLQPEDIATYYCQQEHTLPYTFGQGTKLEIKRT
Male Sprague Dawley rats; 0.02 mg/kg to 1 mg/kg i.p. 15 hours pre-incision, p<0.05 vs saline, FIG. 4
  resting pain (cumulative pain score) 24 hours after surgery: significantly reduced resting pain
Male Sprague Dawley rats; 0.5 mg/kg i.v. two hours after incision, vs saline, FIG. 5
  resting pain (cumulative pain score) 24 hours after surgery: significantly (p<0.05) reduced resting pain
